Results from patent US20230286973A1, “PROTEIN SECRETION INHIBITORS” (KEZAR LIFE SCIENCES, priority 2020, published 2023).

Assays:
[1] = system: PD1-ss+10aa/Gaussia Luciferase; assay: Dox-Induced PD1-ss-Gluc Assay; format: cell-based; settings: 24 hr Dox induction; 293FRT/TO cells; read-out: 24 hr Dox Inducible PD1ssGluc 293FRT/TO: Mean IC50
Outline: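 Flp-In 293 T-REx, stable line; Tet-regulated PD1-ss+10aa fused to Gaussia luciferase; plated day prior; cpd + doxycycline in DMSO/media; 37 °C, 5% CO2.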

[2] = system: TNFα-FL/Gaussia Luciferase; assay: Dox Induced TNFα-FL-Gluc Assay; format: cell-based; settings: for IC50: 24 hr Dox induction, 293FRT/TO cells, read-out: 24 hr Dox Inducible TNFaFLGluc 293FRT/TO: Mean IC50; for 24 hr Dox Inducible TNFaFLGluc 293FRT/TO: TNF/PD1: ratio of TNFaFLGluc IC50 to PD1ssGluc IC50
Outline: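 Doxycycline-inducible Gaussia luciferase-tagged full-length TNFα (1-233) was expressed in stable Flp-In 293 T-REx cells. Compounds were co-added with doxycycline and incubated at 37 °C, 5% CO2.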

[3] = system: HER3-ss+4aa/Gaussia Luciferase; assay: Dox-Induced Her3-ss-Gluc Assay; format: cell-based; settings: 24 hr Dox induction; 293FRT/TO cells; read-out: 24 hr Dox Inducible Her3(ss + 4)Gluc 293FRT/TO: Mean IC50
Outline: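 Reporter line: Flp-In 293 T-REx, T-REx-regulated HER3-ss+4aa fused to Gaussia luciferase. Compound co-added with doxycycline after overnight plating, 37° C., 5% CO2.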

[4] = system: IL-2-FL/Gaussia Luciferase; assay: Dox Induced IL2-FL-Gluc Assay; format: cell-based; settings: for IC50: 24 hr Dox induction, 293FRT/TO cells, read-out: 24 hr Dox Inducible IL2FLGluc 293FRT/TO: Mean IC50; for 24 hr Dox Inducible IL2FLGluc 293FRT/TO: IL2/PD1: ratio of IL2FLGluc IC50 to PD1ssGluc IC50
Outline: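 Doxycycline induces an IL-2(1-153)–Gaussia luciferase fusion in a stable Flp-In 293 T-REx line. Compound exposure runs alongside induction at 37° C.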

[5] = system: multiple myeloma cell line NCI-H929; assay: H929 Cell Viability Assay; format: cell-based, human; settings: Homo sapiens, NCI-H929, 48 h, NCI-H929 cells, Celltiter-Glo
Outline: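 Viability is scored by CellTiter-Glo luminescence following a 48-hour treatment at 37° C. Data for structures shown without stereochemistry refer to stereoisomer mixtures.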

[6] = system: multiple myeloma cell line U266B1; assay: U266 Cell Viability Assay; format: cell-based, human; settings: Homo sapiens, U-266, 48 h, U266B1 cells, Celltiter-Glo
Outline: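 Viability is measured as luciferase signal from CellTiter-Glo following a 48-hour incubation with compound at 37° C. under 5% CO2. Where structures lack drawn stereochemistry, values refer to stereoisomer mixtures.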

[7] = Liver Microsome Stability Assay (rat); settings: rat liver microsomes, with NADPH, 1.0 uM compound
Procedure: (§1) Stability of a compound was assessed in the presence of liver microsomes from various sources—mouse, rat, monkey and human liver microsomes. 1.0 uM compound, 0.4% DMSO in 0.1 M Potassium Phosphate with 1.0 mg/mL liver microsomes, were incubated at 37° C. with or without 1 mM NADPH. The samples were quenched at 0, and 30 minutes.

[8] = Liver Microsome Stability Assay (mouse); settings: mouse liver microsomes, with NADPH, 1.0 uM compound
Procedure: as §1

[9] = Liver Microsome Stability Assay (human); settings: human liver microsomes, with NADPH, 1.0 uM compound
Procedure: as §1

[10] = Liver Microsome Stability Assay (monkey); settings: monkey liver microsomes, with NADPH, 1.0 uM compound
Procedure: as §1

| Compound | IC50 [1] [nM] | IC50 [2] [nM] | 24 hr Dox Inducible TNFaFLGluc 293FRT/TO: TNF/PD1 [2] | IC50 [3] [nM] | IC50 [4] [nM] | 24 hr Dox Inducible IL2FLGluc 293FRT/TO: IL2/PD1 [4] | EC50 [5] [nM] | EC50 [6] [nM] | Liver Microsome Stability (Multiple Species): Rat - % Remaining after 30 min w/NADPH [7] [%] | Liver Microsome Stability (Multiple Species): Mouse - % Remaining after 30 min w/NADPH [8] [%] | Liver Microsome Stability (Multiple Species): Human - % Remaining after 30 min w/NADPH [9] [%] | Liver Microsome Stability (Multiple Species): Monkey - % Remaining after 30 min w/NADPH [10] [%] |
| --- | --- | --- | --- | --- | --- | --- | --- | --- | --- | --- | --- | --- |
| O=C(Nc1ccc(N2CCC[C@@H]2c2csc(NC(=O)c3cccn3Cc3ccnc(F)c3)n2)cc1)OC1CNC1 [Compound A178, azetidin-3-yl (R)-(4-(2-(2-(1-((2-fluoropyridin-4-yl)methyl)-1H-pyrrole-2-carboxamido)thiazol-4-yl)pyrrolidin-1-yl)phenyl)carbamate] | 23.9 | 931 | 39 | 76.3 | 107 | 4.5 | 525 | 7400 | 51.4 | 70.6 | 72.8 | 70.8 |
| CC(=O)N1CC(OC(=O)Nc2ccc(N3CCC[C@@H]3c3csc(NC(=O)c4cccn4Cc4ccnc(F)c4)n3)cc2)C1 [Compound A179, 1-acetylazetidin-3-yl (R)-(4-(2-(2-(1-((2-fluoropyridin-4-yl)methyl)-1H-pyrrole-2-carboxamido)thiazol-4-yl)pyrrolidin-1-yl)phenyl)carbamate] | 2.63 | 138 | 52.3 | 6.96 | 9.01 | 3.4 | 70.5 | > 25000 | 69.3 | 34.8 | 21.3 | 15.4 |
| COC(=O)Nc1ccc(N2CCC[C@@H]2c2csc(NC(=O)c3cc(C)cn3Cc3ccnc(F)c3)n2)nc1 [Compound A180, methyl (R)-(6-(2-(2-(1-((2-fluoropyridin-4-yl)methyl)-4-methyl-1H-pyrrole-2-carboxamido)thiazol-4-yl)pyrrolidin-1-yl)pyridin-3-yl)carbamate] | 4.95 | 49.8 | 440.37 | 3.7 | 14.3 | 52.35 | 715 | > 25000 | 3.14 | 14.4 | 8.99 | 7.35 |
| O=C(Nc1nc(/C=C/c2cocn2)cs1)c1cccn1Cc1ccncc1 [Compound B1, (E)-N-(4-(2-(oxazol-4-yl)vinyl)thiazol-2-yl)-1-(pyridin-4-ylmethyl)-1H-pyrrole-2-carboxamide] | 129 | > 25000 | >194 | 13000 | 19900 | 160 | > 25000 | > 25000 | 4.96 | 5.93 | 1.81 | 1.07 |
| Cc1nc(/C=C/c2csc(NC(=O)c3cccn3Cc3ccncc3)n2)co1 [Compound B2, (E)-N-(4-(2-(2-methyloxazol-4-yl)vinyl)thiazol-2-yl)-1-(pyridin-4-ylmethyl)-1H-pyrrole-2-carboxamide] | 220 | > 25000 | >114 | > 25000 | > 25000 | 110 | > 25000 | > 25000 | 1.8 | 7.06 | 0.69 | 0.9 |
| O=C(Nc1nc(/C=C/c2ccon2)cs1)c1cccn1Cc1ccncc1 [Compound B5, (E)-N-(4-(2-(isoxazol-3-yl)vinyl)thiazol-2-yl)-1-(pyridin-4-ylmethyl)-1H-pyrrole-2-carboxamide] | 2160 | > 25000 | >11.6 | > 25000 | > 25000 | 12 | > 25000 | > 25000 | 0.69 | 1.26 | 0.87 | 0.47 |
| CN1CCOC(/C=C/c2csc(NC(=O)c3cccn3Cc3ccncc3)n2)C1 (stereo not drawn) [Compound B6, (E)-N-(4-(2-(4-methylmorpholin-2-yl)vinyl)thiazol-2-yl)-1-(pyridin-4-ylmethyl)-1H-pyrrole-2-carboxamide] | 4400 | > 25000 | >5.68 | > 25000 | > 25000 | 5.7 | > 25000 | > 25000 | 13.2 | 10 | 5.85 | 6.93 |
| O=C(Nc1nc(/C=C/C2CCc3ccccc3N2)cs1)c1cccn1Cc1ccncc1 (stereo not drawn) [Compound B7, (E)-1-(pyridin-4-ylmethyl)-N-(4-(2-(1,2,3,4-tetrahydroquinolin-2-yl)vinyl)thiazol-2-yl)-1H-pyrrole-2-carboxamide] | 330 | 7870 | 23.9 | 800 | 1270 | 3.8 | 21900 | 21400 | 2.33 | 12.3 | 1.32 | 0.74 |
| CN1c2ccccc2CCC1/C=C/c1csc(NC(=O)c2cccn2Cc2ccncc2)n1 (stereo not drawn) [Compound B8, (E)-N-(4-(2-(1-methyl-1,2,3,4-tetrahydroquinolin-2-yl)vinyl)thiazol-2-yl)-1-(pyridin-4-ylmethyl)-1H-pyrrole-2-carboxamide] | 260 | 3530 | 13.6 | 610 | 875 | 3.4 | 24200 | > 25000 | 7.12 | 5.24 | 0.69 | 0.47 |
| O=C(Nc1nc(/C=C/C2CN(S(=O)(=O)c3ccccc3)CCO2)cs1)c1cccn1Cc1ccncc1 (stereo not drawn) [Compound B9, (E)-N-(4-(2-(4-(phenylsulfonyl)morpholin-2-yl)vinyl)thiazol-2-yl)-1-(pyridin-4-ylmethyl)-1H-pyrrole-2-carboxamide] | 910 | > 25000 | >27.5 | 1610 | 1850 | 2 | 15200 | 10400 | 3.44 | 0.31 | 0.41 | 0.17 |
